Results: patent US20040006070A1, “Intraspinal continuous infusion of midazolam hydrochloride for the treatment of pain” (priority 2002, published 2004)
Several values for one entry are separate records, joined by “and”; a condition that tells them apart may be missing. Identical values can stand only once. Entries after “also recorded” stand apart in the source; their conditions may differ. Counter-ions that a name gives are not always drawn.

Columns and labels:
[1] = 1-5 mg/day, prior art; cited from earlier work
[2] = Physiological data: indirect blood pressure, pulse, rectal temperature, weight; type: in vivo, sheep
Excerpt: Daily rectal temperatures were taken and any behavioral/motor changes were noted. Gait monitoring will be conducted as described below based on a four-grade scale for the evaluation of behavioral and motor changes. Grade 0: animal standing, sheep is able to rise and ambulate without any difficulty. Grade 1: Shuffling of either rear leg or slight limp; slight distortion of normal spinal axis. Grade 2: Loss of righting reflex in one of the rear legs, sheep able to stand without assistance, but with some difficulty. Grade 3: Inability to maintain standing posture; attempts to help animal stand are unsuccessful.
Indirect blood pressure, pulse recording, pain testing (mechanical stimulus device, cold and warm water baths see description in procedure) and weight were taken on days 1, 3, 7, 15, 22, 29, 36, and 43. Venous blood samples (15 ml drawn from the jugular vein with Vacutainer brand blood collection tubes) for complete blood count, electrolytes, and extended blood chemistry were drawn on days 1, 15, and 43 (mild procedure only light hand restraint necessary).

[3] = Toxicity testing of midazolam in the pig model, closed label (swine data); type: in vivo
Protocol: Another closed label study was performed in pigs. This study was performed in response to implications of possible species-related toxicity reported by researchers in Turkey and France (Malinovsky et al., 1991; Svensson et al., 1995; Erdine et al, 1999). […] Rats were administered single or multiple bolus doses for 20 days. Rabbits were administered bolus injections of 0.1% midazolam (pH 3.3) in 0.3 ml or preservative-free midazolam (pH 3.5) in 0.3 ml for one day or five consecutive days. To further assess the safety of spinally administered midazolam by continuous infusion in a second species, three pigs were instrumented with Medtronic SynchroMed® intrathecal infusion systems. Pigs were administered 15 mg/day (N=2), or saline control (N=1).

[4] = test system: neuropathic pain model in the sheep; experiment: Neuropathic pain model in sheep, behavior monitoring (Observer 3.0) with visual analog pain score; type: in vivo; settings: for average pain score: sheep #980 Dudley
Excerpt: The neuropathic pain model in the sheep is created by placing four tight ligatures around the median, radial, or ulnar nerve (or a combination thereof) with 0-chromic gut suture. This method produces a chronic painful peripheral mononeuropathy which may be related to those conditions seen in humans with causalgia and reflex sympathetic dystrophy.
To evaluate animal behavior, the Observer 3.0 software (Noldus Information Technology, The Netherlands) was used to aid docmentation of a daily record of multiple traits. […] The behavior was then interpreted into a visual analog pain score (VAS), where 0 represents no pain and 100 represents severe pain.
Approximately three days prior to surgery each sheep will undergo a 15-minute baseline behavior evaluation. The observations made in this evaluation include, a computerized behavior software recording (the Observer) for 15minutes—gait monitoring—and recording of pain perception via visual analog scale-using the Observer. In some animals, recording of vital signs (blood pressure, heart rate, respirations per minute) will be performed using the Observer. Baseline values for pain perception are recorded via the mechanical stimulus device and/or behavior monitoring will also be performed at this time.
The sheep will be observed daily postoperatively. […] Observations of neuropathic pain development include changes in ambulation, alertness, appetite, urination, defecation, herding activity, body temperature and pain behaviors. This daily behavior is recorded utilizing the observer (an observational software system).

[5] = double blinded sheep Chicken Hawk #87, 5 mg/day intrathecal infusion, day (1-43), hydrochloride
[6] = double blinded sheep Elmer Fudd #437, 5 mg/day intrathecal infusion, day (1-43), hydrochloride
[7] = double blinded sheep Leghorn II #815, 15 mg/day intrathecal infusion, day (1-43), hydrochloride
[8] = double blinded sheep Petunia #439, 15 mg/day intrathecal infusion, day (1-43), hydrochloride
[9] = double blinded sheep Porky #402, 5 mg/day intrathecal infusion, day (1-43), hydrochloride
[10] = double blinded sheep Roadrunner #84, 15 mg/day intrathecal infusion, day (1-43), hydrochloride
[11] = open label sheep #457 Tazz, 15 mg/day intrathecal infusion, day (1-43), hydrochloride
[12] = open label sheep #498 Toad, 10 mg/day intrathecal infusion, day (1-43), hydrochloride
[13] = open label sheep #518 Sandy, 5 mg/day intrathecal infusion, day (1-43), hydrochloride
[14] = open label sheep Dot #85, 15 mg/day intrathecal infusion, day (1-43), hydrochloride
[15] = open label sheep Wacko #83, 15 mg/day intrathecal infusion, day (1-43), hydrochloride
[16] = open label sheep Yacko #91, 15 mg/day intrathecal infusion, day (1-43), hydrochloride
[17] = CSF, individual pigs, 15 mg, hydrochloride
[18] = individual pigs, Drug Dose 15 mg, hydrochloride
[19] = pigs, 15 mg/day continuous intrathecal infusion (N=2)
[20] = sheep Rowdy #819, 5 mg, daily values, hydrochloride, on May 29, 2001
[21] = sheep Rowdy #819, 5 mg, daily values, hydrochloride, on May 30, 2001

## Cc1ncc2n1-c1ccc(Cl)cc1C(c1ccccc1F)=NC2 [Midazolam, midazolam hydrochloride]
[1]
  toxicities reported: Sedation and somnolence
[2]; [5]
  Blood pressure Dia: 62 and 37 and 53 and 51 and 44 and 65 and 69 and 48
  Blood pressure Sys: 112 and 127 and 122 and 132 and 130 and 126 and 151
  Body Temp. Normal 101.3-104.0: 102.4 and 102.6 and 102.8 and 102.2 and 102.0
  Pulse Rate Normal 55-115: 75 and 83 and 63 and 101 and 79 and 88 and 84 and 82
[2]; [6]
  Blood pressure Sys: 122 and 138 and 119 and 131 and 150 and 136 and 139 and 120
  Body Temp. Normal 101.3-104.0: 102.2 and 102.8 and 101.4 and 102.0 and 101.8
  Pulse Rate Normal 55-115: 87 and 70 and 80 and 83 and 79 and 73 and 85
[2]; [7]
  Blood pressure Sys: 130 and 152 and 143 and 160 and 138 and 145
  Body Temp. Normal 101.3-104.0: 104.2 and 102.4 and 102.8 and 102.2 and 102.6
  Pulse Rate Normal 55-115: 111 and 144 and 88 and 125 and 121 and 97 and 89 and 87
[2]; [8]
  Blood pressure Dia: 34 and 49 and 44 and 32 and 26 and 45
  Blood pressure Sys: 133 and 152 and 126 and 132 and 123 and 114 and 120 and 142
  Body Temp. Normal 101.3-104.0: 102.0 and 102.8 and 103.0 and 101.0 and 102.4
  Pulse Rate Normal 55-115: 89 and 72 and 74 and 69 and 66 and 63 and 71 and 90
[2]; [9]
  Blood pressure Dia: 65 and 70 and 42 and 67 and 55 and 68 and 41 and 40
  Blood pressure Sys: 148 and 107 and 140 and 133 and 113 and 135 and 134 and 147
  Body Temp. Normal 101.3-104.0: 102.0 and 102.6 and 101.0 and 101.2 and 102.2
  Pulse Rate Normal 55-115: 87 and 99 and 89 and 100 and 90 and 86 and 108
[2]; [10]
  Blood pressure Dia: 75 and 77 and 49 and 42 and 50 and 51 and 40
  Blood pressure Sys: 137 and 124 and 132 and 116 and 144
  Body Temp. Normal 101.3-104.0: 101.8 and 101.6 and 102.2 and 104.0 and 102.4 and 102.0 and 102.6
  Pulse Rate Normal 55-115: 90 and 97 and 104 and 78 and 94 and 130 and 124 and 77
[2]; [11]
  Blood pressure Dia: 83 and 71 and 68 and 70 and 73 and 88
  Blood pressure sys: 151 and 154 and 145 and 147 and 135
  Body Temp. Normal 101.3-104.0: 100.8 and 102.2 and 103.0 and 102.0
  Pulse Rate Normal 55-115: 138 and 77 and 74 and 76 and 79 and 82
[2]; [12]
  Blood pressure Dia: 98 and 73 and 66 and 109 and 71 and 59 and 58
  Blood pressure Sys: 177 and 143 and 136 and 156 and 153 and 118 and 149
  Body Temp. Normal 101.3-104.0: 102.0 and 104.2 and 102.8 and 102.4 and 101.8 and 103.0 and 103.2
  Pulse Rate Normal 55-115: 98 and 79 and 95 and 77 and 104 and 67 and 89 and 78
[2]; [13]
  Blood pressure Sys: 180 and 150 and 141 and 152 and 147 and 169 and 164 and 185
  Body Temp. Normal 101.3-104.0: 102.0 and 101.0 and 101.8 and 101.6 and 102.8
[2]; [14]
  Blood pressure Dia: 68 and 49 and 67 and 59 and 53 and 77 and 57 and 69
  Blood pressure Sys: 128 and 109 and 110 and 133 and 130 and 120 and 155
  Pulse Rate Normal 55-115: 92 and 89 and 86 and 117 and 85 and 72 and 66 and 71
[2]; [15]
  Blood pressure Dia: 60 and 45 and 47 and 42 and 51 and 66 and 73 and 70
  Blood pressure Sys: 148 and 166 and 130 and 106 and 102 and 132 and 163 and 128
  Body Temp. Normal 101.3-104.0: 102.0 and 102.4 and 102.6
  Pulse Rate Normal 55-115: 104 and 98 and 91 and 92 and 99 and 84 and 75
[2]; [16]
  Blood pressure Sys: 138 and 143 and 156 and 110 and 151 and 160 and 149
  Pulse Rate Normal 55-115: 115 and 80 and 84 and 86 and 72 and 82 and 66 and 69
[2]; sheep Rowdy #819, 10 mg
  Blood pre-assure: 136/75
  Pulse: 122
[2]; sheep Rowdy #819, 15 mg
  Blood pre-assure: 143/77
  Pulse: 94
  Respirations per minute: 40 per minute
[3]; CSF, individual pigs, 15 mg, cell wraps 'No' / 'Growth'
  Routine Cultures Post Mortum: No
[3]; [17]
  Glucose Post Mortum: 11 mg/dL and 31 mg/dL
  Gross Exam Post Mortum: Colorless; also recorded: cloudy; also recorded: clear
  RBC Count Post Mortum: 1,350 /ul and 0 /ul
  Total Protein Post Mortum: 73 mg/dL and 39 mg/dL
  WBC Count Post Mortum: 888 µL⁻¹ and 117 µL⁻¹
[3]; individual pigs, Drug Dose 15 mg
  clinical symptoms: none
[3]; [18]
  Final Weight: 147 and 170
  Histopathological Changes: Most foreign body reaction in all the pigs; also recorded: The least foreign body reaction in all the pigs. The spinal reaction
[3]; [19]
  clinical or gross changes at necropsy: No clinical or gross changes at necropsy were observed
  histology, toxicity related to the infusion: no evidence of toxicity related to the midazolam infusion
[4]; average on most days, intrathecal 3 to 6 mg/day, saline pretreatment 60 to 95
  VAS score (0 no pain, 100 severe pain): approximately 30
[4]; first sheep (Rowdy), 5 mg/day
  VAS score, average: 30%
[4]; first sheep (Rowdy), after dose escalation to 15 mg/day
  analgesia at higher doses: less analgesia
[4]; intrathecal up to 5 mg/day
  analgesic activity against neuropathic pain: had analgesic activity against neuropathic pain
[4]; 3 mg/day for 13 days
  average pain score: 32%
[4]; 6 mg/day, remainder of the study
  average pain score: 35%
[4]; reinstituted 3 mg/day escalated to 5 mg/day over 7 days
  average pain score: 65%
[4]; sheep Rowdy #819, 5 mg
  Other behavior: Observe operated leg: 0.56%
[4]; [20]
  Eating: 69.88%
  Holding operated leg off the ground: 5.77%
  Holding unoperated leg off the ground: 0.90%
  Walking: 5.07%
[4]; [21]
  Eating: 83.94%
  Holding operated leg off the ground: 6.24%
  Holding unoperated leg off the ground: 0.56%
  Walking: 4.22%
[4]; sheep Rowdy #819, 10 mg
  Other behavior: Eating lying down: 0.29%
[4]; sheep Rowdy #819, 15 mg
  Eating: 3.29%
  Holding operated leg off the ground: 8.55%
  Holding unoperated leg off the ground: 0.81%
  Other behavior: Bleating: 0.86%
  Other behavior: Pulling wool: 1.11%
  Other behavior: Standing ruminating: 70.19%
  Pain Score: 40
  Standing: 13.79%
  Walking: 1.40%
